Test results as given in patent US9872493B2, “Method for promoting plant growth” (SUMITOMO CHEMICAL COMPANY, LIMITED, priority 2012, dated 2018).

What was measured:
Nicotiana benthamiana = assay: Test for evaluating growth promotion under low-temperature stress by hydroponics of Nicotiana benthamiana (Test Examples 4-6); type: in vivo; details: compound at 10 ppm, 7 days at 1.5±1.0° C. low-temperature stress, then 3 days at 22° C., green leaf area vs untreated control, read-out: value of a relative leaf area (equation (1))
Procedure: A DMSO solution, which contained one of the compounds 5, 14, 22, 23, 24, 25, 26, 28, 30, 31, 32, 33, 34, 35, 38, 39 and 40 of the present invention at a concentration of 10,000 ppm, was prepared. The DMSO solution of the compound of the present invention was added at a volume ratio of 1/1,000 to the Murashige•Scoog medium of a ½-fold concentration (a medium containing 2.3 g of mixed salts (manufactured by Wako Pure Chemical Industries, Ltd.), 200 mg of Myo-inositol (manufactured by Sigma-Aldrich Co. LLC.), 2 mg of nicotinic acid (manufactured by Wako Pure Chemical Industries, Ltd.), 2 mg of pyridoxine hydrochloride (manufactured by Wako Pure Chemical Industries, Ltd.), 20 mg of thiamine hydrochloride (manufactured by Wako Pure Chemical Industries, Ltd.), 20 g of sucrose (manufactured by Wako Pure Chemical Industries, Ltd.), and 1 g of MES (manufactured by DOJINDO LABORATORIES) per 1 L of water and having pH adjusted to 5.8), thereby preparing a medium containing the compound of the present invention at a concentration of 10 ppm.
Seeds of Nicotiana benthamiana were seeded in the 5 μL of the medium and cultured overnight at 22° C. Thereafter, 45 μL of the medium containing the compound of the present invention at a concentration of 10 ppm was added thereto, and the seeds are cultivated for 7 days at 22° C., an illuminance of 4,000 lux, and a day length of 16 hours, thereby the nursery plants raised from the Nicotiana benthamiana were treated with the compound.
Moreover, instead of the above medium a test plot, which was obtained by performing the same treatment by using a medium prepared by adding DMSO to the Murashige•Scoog medium of ½-fold concentration at a volume ratio of 1/1,000, was used as a control plot not treated with the compound.
The nursery plants of the Nicotiana benthamiana treated with the compound were subjected to low-temperature treatment by being cultivated for 7 days at 1.5±1.0° C., an illuminance of 2,000 lux, and a day length of 16 hours.
The nursery plants of the Nicotiana benthamiana having undergone the low-temperature stress treatment were cultivated for 3 days at 22° C., an illuminance of 4,000 lux, and a day length of 16 hours. Thereafter, the area of green leaf was quantified by Scanalyzer HTS (manufactured by LemnaTec GmbH). Moreover, the value of the control plot not treated with the compound that had not yet been subjected to the low-temperature stress treatment was measured in the same manner. A value of a relative leaf area was calculated based on the following equation (1), and if the value of a relative leaf area was 5 or greater, the compound was evaluated to have a mitigating effect. As a result of the evaluation, it was confirmed that when the plant was treated with one of the compounds 5, 14, 22, 23, 24, 25, 26, 28, 30, 31, 32, 33, 34, 35, 38, 39 and 40 of the present invention at 10 ppm, the value of a relative leaf area was 5 or greater, compared to the area of green leaf of the control plot not treated with compound. Accordingly, it was confirmed that the treatment using the compound of the present invention brings about a growth promotion effect. Relative leaf area=100*(a green area of a plot treated with the compound of the present invention−a green area of a control plot not treated with the compound of the present invention)/(a green area of a control plot not treated with the compound of the present invention that has not yet been subjected to low-temperature stress treatment−a green area of a control plot not treated with the compound of the present invention) Equation (1): […]
A DMSO solution, which contained one of the compounds 6, 7, 8, 11, 12, 15, 19, 23, 24, 25, 28, 30, 31, 33, 34, 36, 37, 38 and 39 of the present invention at a concentration of 1,000 ppm, was prepared. […]

[1] = system: Rice (Variety: Nipponbare); assay: Test for evaluating promotion of root growth by hydroponics of rice (Test Examples 1-3); type: in vivo
Procedure: Rice (Variety: Nipponbare)
(§1) A DMSO solution, which contained one of the compounds 14, 18, 21, 23, 26, 28, 29, 30, 35, 36, 37, 39 and 40 of the present invention at a concentration of 100,000 ppm, was added to Hoagland hydroponic solution (Hoagland and Arnon, California Agricultural Experiment Station 1950 Circular 347 pp. 34) of ¼-fold concentration at a volume ratio of 1/10,000. In this manner, hydroponic solutions containing one of the compounds 14, 18, 21, 23, 26, 28, 29, 30, 35, 36, 37, 39 and 40 of the present invention at 10 ppm were prepared respectively. As an untreated control plot, a hydroponic solution obtained by adding DMSO to Hoagland hydroponic solution of ¼-fold concentration at a volume ratio of 1/10,000 was used.
(§2) Rice seeds were soaked in a 1% aqueous sodium hypochlorite solution for 10 minutes, then soaked in a 70% ethanol solution for surface sterilization, and then washed with distilled water. The sterilized seeds were soaked in a hydroponic solution containing the test compound described above at 10 ppm and incubated in a dark place for 3 days at 28° C. to perform treatment for hastening germination.
(§3) Thereafter, 30 ml of hydroponic solution containing the test compound at 10 ppm was dispensed in a plastic tube (diameter of 20 mm×height of 113 mm) of which the side was covered with cardboard to block light. A float prepared using a styrene board and vinyl mesh was floated, and the rice seeds that had undergone the treatment for hastening germination were placed on the float on the surface of the hydroponic solution. The seeds were cultivated for 3 days at 26° C., an illuminance of 4,000 lux of the top surface of the tube, a humidity of 50%, and a day length of 16 hours.
The nursery plants of rice obtained after cultivating were measured in terms of the length of seminal root by using WinRHIZO system (manufactured by Regent Instruments Inc). For each test plot, an average of the measured values of the seminal root of 4 or 5 individuals were determined.
as §1, with “compounds 7, 8, 9, 10, 12, 17, 20,” for “compounds 14, 18,”, “21, 25, 27,” for “21, 23, 26,”, “30, 34,” for “30,”, “37, 38,” for “37,”, “of 10,000” for “of 100,000”, “at 1” for “at 10”
as §2, with “at 1” for “at 10”
as §3, with “1” for “10”
The nursery plants of rice obtained after cultivation were measured in terms of the length of seminal root by using WinRHIZO system (manufactured by Regent Instruments Inc). […]

In the case of O=C(NCc1ccccc1)c1csc2c(C(F)(F)F)cccc12 [Compound 40], the relative green leaf area after low-temperature stress at 10 ppm (Nicotiana benthamiana) is reported as at least 5%, the “length of seminal root compared with the untreated control plot (in words)” value ([1]; 1 ppm) is reported as “obviously longer” and the “length of seminal root compared with the untreated control plot (in words)” value ([1]; 10 ppm) is reported as “obviously longer”.
